The compounds below were run against human SSTR2 (Homo sapiens (Human), UniProt P30874) (assay: Human SSTR2 intracellular cAMP functional assay for agonists (HTRF)). Details: not given.
human SSTR2, sequence (P30874 whole entry): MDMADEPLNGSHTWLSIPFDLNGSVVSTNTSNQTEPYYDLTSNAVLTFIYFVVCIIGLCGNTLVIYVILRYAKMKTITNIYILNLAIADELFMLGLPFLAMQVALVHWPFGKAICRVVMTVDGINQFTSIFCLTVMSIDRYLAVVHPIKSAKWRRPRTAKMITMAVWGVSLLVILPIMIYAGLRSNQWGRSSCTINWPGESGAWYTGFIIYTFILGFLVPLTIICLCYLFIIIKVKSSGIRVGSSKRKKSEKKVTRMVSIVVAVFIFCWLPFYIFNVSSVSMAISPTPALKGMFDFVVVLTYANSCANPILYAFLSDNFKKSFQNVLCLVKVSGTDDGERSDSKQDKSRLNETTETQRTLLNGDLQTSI
Assay type: cell-based
Method in brief: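 Cells bearing human SSTR2 exposed to compound for 20 minutes at 37 °C; after lysis, cAMP measured by time-resolved fluorescence (HTRF) and converted via a standard curve. EC50 calculated from cAMP versus compound concentration.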
With `CCC(CO)NCC1CN(c2c(-c3cc(C)cc(F)c3)cnc3ccc(-c4cc(F)cc(C#N)c4O)cc23)C1` (stereo not drawn) [2-41, 5-fluoro-3-[3-(3-fluoro-5-methylphenyl)-4-(3-{[(1-hydroxybutan-2-yl)amino]methyl}azetidin-1-yl)quinolin-6-yl]-2-hydroxybenzonitrile] the EC50 was 0.01 to 0.1 µM.

Same assay, conditions: CHO-K1 cells stably expressing human SSTR2; NKH477-stimulated cAMP; read-out: EC50 (inhibition of cAMP activities via human SST2R)
`CONC(=O)Nc1ccc(C#N)cc1-c1ccc2ncc(-c3cc(F)cc(F)c3)c(N3CCC(N)CC3)c2c1` [2-189, 1-{2-[4-(4-aminopiperidin-1-yl)-3-(3,5-difluorophenyl)quinolin-6-yl]-4-cyanophenyl}-3-methoxyurea] was tested, and the EC50 was < 0.01 µM.
For `Cc1cc(F)cc(-c2nnc3cc(Cl)c(-c4ccc5[nH]c(=O)[nH]c5c4)cc3c2N2CCC(N)CC2)c1` [1-8, 5-[4-(4-aminopiperidin-1-yl)-7-chloro-3-(3-fluoro-5-methylphenyl)cinnolin-6-yl]-2,3-dihydro-1H-1,3-benzodiazol-2-one], the EC50 was < 0.01 µM.
With `Cc1cc(F)cc(-c2nnc3ccc(-c4cccc(C#N)c4O)cc3c2N2CCC(N)CC2)c1` [1-17, 3-[4-(4-aminopiperidin-1-yl)-3-(3-fluoro-5-methylphenyl)cinnolin-6-yl]-2-hydroxybenzonitrile] the EC50 was < 0.01 µM.
For `Cc1cc(F)cc(-c2cnc3ccc(-c4nccc(C#N)c4N)cc3c2N2CC(C3COCCN3)C2)c1` (stereo not drawn) [2-282, 3-amino-2-[3-(3-fluoro-5-methylphenyl)-4-[3-(morpholin-3-yl)azetidin-1-yl]quinolin-6-yl]pyridine-4-carbonitrile], the EC50 was < 0.01 µM.
For `Cc1cc(F)cc(-c2cnc3ccc(-c4cc(F)cc(C(N)=O)c4)nc3c2N2CCC(N)CC2)c1` [3-1, 3-[8-(4-aminopiperidin-1-yl)-7-(3-fluoro-5-methylphenyl)-1,5-naphthyridin-2-yl]-5-fluorobenzamide], the EC50 was < 0.01 µM.
For `NC1CCN(c2c(-c3cc(F)cc(F)c3)cnc3ccc(-c4c(O)c(Br)cc(F)c4F)cc23)CC1` [2-241, 2-[4-(4-aminopiperidin-1-yl)-3-(3,5-difluorophenyl)quinolin-6-yl]-6-bromo-3,4-difluorophenol], the EC50 was < 0.01 µM.
With `COC(=O)Nc1ccc(C#N)cc1-c1ccc2ncc(-c3cc(F)cc(F)c3)c(N3CCC(N)CC3)c2c1` [2-185] the EC50 was < 0.01 µM.
With `Cc1cc(Cl)cc(-c2cnc3ncc(-c4cccc(C#N)c4O)cc3c2N2CCC(N)CC2)c1` [4-4, 3-[5-(4-aminopiperidin-1-yl)-6-(3-chloro-5-methylphenyl)-1,8-naphthyridin-3-yl]-2-hydroxybenzonitrile] the EC50 was < 0.01 µM.
For `NC1CCN(c2c(-c3cc(F)cc(F)c3)cnc3ccc(-c4ncccc4C=NO)cc23)CC1` [2-195, 1-[3-(3,5-difluorophenyl)-6-{3-[(hydroxyimino)methyl]pyridin-2-yl}quinolin-4-yl]piperidin-4-amine], the EC50 was < 0.01 µM.
With `Cc1cc(F)cc(-c2cnc3ccc(-c4cc(F)cc(F)c4NC(=O)NOCC(F)(F)F)cc3c2N2CCC(N)CC2)c1` [2-233, 1-{2-[4-(4-aminopiperidin-1-yl)-3-(3-fluoro-5-methylphenyl)quinolin-6-yl]-4,6-difluorophenyl}-3-(2,2,2-trifluoroethoxy)urea] the EC50 was < 0.01 µM.
In the case of `NC1CCN(c2c(-c3cc(F)cc(F)c3)cnc3ccc(-c4ccc5oc(=O)[nH]c5c4)cc23)CC1` [2-142, 5-[4-(4-aminopiperidin-1-yl)-3-(3,5-difluorophenyl)quinolin-6-yl]-2,3-dihydro-1,3-benzoxazol-2-one], the EC50 is reported as < 0.01 µM.
In the case of `CON=Cc1cncc(-c2ccc3ncc(-c4cc(F)cc(F)c4)c(N4CC[C@H]5NCCO[C@@H]5C4)c3c2)c1N` (relative stereo) [2-266], the EC50 is reported as < 0.01 µM.
With “3-[4-(4-aminopiperidin-1-yl)-7-chloro-3-(3,5-dichlorophenyl)cinnolin-6-yl]-5-fluoro-2-hydroxybenzonitrile [1-27]” the EC50 was < 0.01 µM.
In the case of `NC(=O)c1cccc(-c2ccc3ncc(-c4cc(F)cc(F)c4)c(N4CCC(N)CC4)c3c2)c1OC(CO)CO` [2-67, 3-[4-(4-aminopiperidin-1-yl)-3-(3,5-difluorophenyl)quinolin-6-yl]-2-[(1,3-dihydroxypropan-2-yl)oxy]benzamide], the EC50 is reported as < 0.01 µM.
